Experiments:
ZmCAS1 transcript [1] = test: Northern blot of maize anther RNA from CBSU-treated plants, ZmCAS1 probe; type: in vivo; conditions: FIG. 2
Protocol: (§1) Wild type maize plants were grown to the meiosis stage of microspore development. Plants were watered with 30 mg 2-CBSU and allowed to develop to the quartet and early vacuolate stage of microspore development. PolyA+ anther RNA was isolated from wild type control and CBSU treated plants and stored. A cDNA library was constructed from mRNAs isolated from CBSU-treated plants, arrayed onto nylon filters and stored. A cDNA subtraction library was generated using the Clontech PCR-Select cDNA Subtraction Kit (#K1804-1) following the manufacturer's instructions to enrich for CBSU-specific transcripts. Using this approach anther PolyA+ mRNA from wild-type plants was used to enrich for transcripts found in the anther PolyA+ mRNA from CBSU treated plants. […]
(§2) To determine whether the ZmCAS1 cDNA was 1) induced in maize anthers by CBSU-treatment and 2) reduced or absent in tapetum and microspore-ablated maize anthers from CBSU-treated 5126:DAM plants, a 477 bp ZmCAS1c-1 DNA fragment (SEQ ID NO:1), as well as DNA fragments from ZmMS45, Zm5126, ZmActin, and ZmUbiquitin (Cigan et al. 2001. […] MS45 and 5126 transcripts were easily detected in anther RNAs from male-fertile plants but absent in anther RNAs from male-sterile plants (FIG. 2) further supporting the observation that these RNAs are localized to the maize tapetum (Cigan et al. 2001. Sex. Plant Reprod. 14, 135-142).

IN2-2 transcript = test: Northern blot of maize anther RNA from CBSU-treated plants, IN2-2 probe; type: in vivo; conditions: CBSU-treated male-fertile and male-sterile plants; not detectable in untreated controls; FIG. 2
Protocol: as §1, §2

ZmCAS1 transcript [2] = test: Northern blot of maize callus, leaf and anther RNA treated with CBSU, ZmCAS1 probe; conditions: CBSU-treated tissues; FIG. 3
[3] = test system: 1.7 kb ZmCAS1 promoter driving GUS reporter; test: GUS staining (X-Gluc) of maize callus events transformed with PHP16975; type: cell-based; conditions: room temperature, 18 hours, FIG. 4A
Excerpt: Agrobacterium-mediated transformation of immature embryos was used to generate integrated copies of PHP16974 (SEQ ID NO:11; ZmCAS1HindIII Pro:GUS/35SPAT) comprising the 1.0 kb ZmCAS1 promoter (SEQ ID NO:9), PHP16975 (SEQ ID NO:12, ZmCAS1BamPro:GUS/35SPAT) comprising the 1.7 kb ZmCAS1 promoter (SEQ ID NO:10) and PHP16972 (SEQ ID NO:13, ZmCAS1HindIII Pro:MS45/35SPAT) comprising the 1.0 kb ZmCAS1 promoter or PHP16973 (SEQ ID NO:14, ZmCAS1BamPro:MS45/35SPAT:) comprising the 1.7 kb ZmCAS1 promoter.
To determine whether the 1.7 kb or the 1.0 kb ZmCAS1 promoter from maize could direct induced expression of the GUS reporter, three bialophos-resistant callus events were placed onto maintenance media and maintenance media containing increasing amounts of the safener CBSU-2 for at room temperature for 18 hours, removed and stained with X-Gluc to detect GUS activity.

[4] = test system: truncated 1.0 kb ZmCAS1 promoter driving GUS reporter; test: GUS staining (X-Gluc) of maize callus events transformed with PHP16974; type: cell-based; conditions: seven PHP16974 callus events, 100 mg/liter CBSU, room temperature; FIG. 4B
[5] = test system: 1.7 kb ZmCAS1 promoter driving GUS reporter; test: GUS expression in leaf punches of maize plants transformed with PHP16975; type: in vivo; conditions: 3 PHP16975 plants, about 5 leaf stage, 2 days after watering with 30 mg 2-CBSU; FIG. 5
Protocol: Plants were also regenerated from callus events containing PHP16975 and grown in the greenhouse to approximately the 5 leaf stage. At this stage of development, leaf punches from plants regenerated from the 3 bialophos-resistant events shown in FIG. 5 were collected pre- (C) and post-watering (S) with 30 mg of 2-CBSU to examine GUS expression in leaf in response to application of the safener.

[6] = test system: 1.0 kb ZmCAS1 promoter driving MS45; test: Northern analysis of MS45 mRNA in ms45/ms45 maize callus transformed with PHP16972; type: cell-based; conditions: five PHP16972 ms45/ms45 callus events, 100 mg/liter CBSU, room temperature, 18 hours; FIG. 6
Excerpt: T-DNA vectors PHP16972 (SEQ ID NO:13, ZmCAS1HindIII Pro: MS45/35S:PAT) and PHP16973 (SEQ ID NO: 14, ZmCAS1 BamPro:MS45/35S:PAT) were used to transform maize callus which was generated to contain a segregating population of MS45/ms45 heterozygous and ms45/ms45 homozygous mutant plants. In order to detect MS45 RNA or protein expression under the control of the 1.0 or 1.7 kb ZmCAS promoter in maize anthers, plants containing a naturally occurring mutation in the maize MS45 gene which results in loss of MS45 RNA and protein were used for these studies. Pollen from MS45/ms45 plants were used to fertilize male-sterile ms45/ms45 plants for the purpose of generating embryos which would be ms45/ms45 as described in Cigan et al 2001. […] Five random bialophos-resistant callus events containing integrated copies of PHP16972 were placed onto maintenance media (FIG. 5, (−)) and maintenance media containing 100 mg/liter safener CBSU-2 (FIG. 5 (+)) at room temperature for 18 hours, removed and PolyA+ RNA prepared and used for RNA analysis as described (Cigan et al. 2001. Sex. Plant Reprod. 14, 135-142) using the ZmMS45 and ZmActin probes for hybridization analysis. […] A very low signal was observed when callus was grown in the absence of CBSU. Actin was used as a control probe to show nearly equivalent RNA levels were present in all samples. […]

[7] = test system: 1.7 kb ZmCAS1 promoter driving MS45; test: Western analysis of MS45 protein in ms45/ms45 maize plants transformed with PHP16973; type: in vivo; conditions: PHP16973 plants watered with 30 mg CBSU at meiosis stage, collected 2 days later
[8] = test system: truncated 1.0 kb ZmCAS1 promoter driving GUS reporter; test: GUS staining (X-Gluc) of rice callus events transformed with PHP16974; type: cell-based, Oryza sativa cv. Kitaake; conditions: four PHP16974 events, 100 mg/liter CBSU, 24 hours; FIG. 9
Excerpt: To determine whether the ZmCAS1 promoter could conditionally regulate expression in response to safener treatment or heat treatment in plant species other than maize, Agrobacterium-mediated transformation was used to generate integrated copies of PHP16974 (ZmCAS1HindIII Pro:GUS) comprising the truncated 1.0 kb ZmCAS1 promoter for studies in rice. Scutellum from 10-14 day old germinating seeds (Oryza sativa cv. Kitaake) was used for rice transformation experiment (Toki. 1997, PI Mol. Biol Reporter 15:16-21). Bialophos-resistant callus events containing PHP16974 were selected and screened for their ability to respond to safener application. Four independent bialophos-resistant events were grown on maintenance media or maintenance media containing 100 mg/liter CBSU for 24 hours, removed and stained with X-Gluc. […] PHP16974 bialophos-resistant events were regenerated into plants. Leaf tissue was collected from these plants and used for DNA hybridization analyses to identify single-copy PHP16974 insertions. These plants were allowed to set selfed seed and were used for subsequent studies to monitor GUS expression under the transcriptional control of the ZmCAS1 promoter. Sixteen seed were selected from 2 single-copy PHP16974 events were sterilized, grown on hormone-free media at 28° C. or 37° C. for 48 hours and allowed to germinate. […]

NC(=O)NS(=O)(=O)c1ccccc1Cl [CBSU, N-(aminocarbonyl)-2-chlorobenzenesulfonamide]
ZmCAS1 hybridization signal in anther mRNA (ZmCAS1 transcript [1]; male-fertile plants watered with 30 mg 2-CBSU (+, F)): strong hybridization signals | ZmCAS1 hybridization signal in anther mRNA (ZmCAS1 transcript [1]; male-sterile 5126:DAM plants, CBSU-treated (+, S)): reduced ZmCAS1 signal | IN2-2 hybridization signal in anther mRNA (IN2-2 transcript): strong hybridization signals | ZmCAS1 hybridization in mRNAs from callus, leaf and anther (ZmCAS1 transcript [2]): strong hybridization | GUS expression in callus ([3]; 10 mg/l CBSU): low levels of GUS expression | GUS expression in callus ([3]; 100 mg/l CBSU): strong GUS expression | GUS expression in callus [4]: inducible GUS expression | GUS expression in leaf punches [5]: strong GUS expression | MS45 mRNA hybridization signal in callus [6]: strong induction | MS45 protein in leaf extracts ([7]; FIG. 7): increased steady-state levels of the MS45 protein | MS45 protein in anther extracts ([7]; FIG. 8): Increased MS45 protein | GUS expression in rice callus [8]: strong GUS expression
